Source: ChEMBL document CHEMBL3885881, “DrugMatrix”

Species: Rattus norvegicus
Experiment: DrugMatrix - Regimen: Daily Repeat
Format: toxicity, organism-based, Sprague-Dawley
Parameters: regimen Daily Repeat, gender Male, age 6-8 weeks
Settings: in vivo, iv, vehicle 100 % SALINE; for ABSOLUTE BASOPHIL / ABSOLUTE EOSINOPHIL / ABSOLUTE LYMPHOCYTE / ABSOLUTE MONOCYTE / ABSOLUTE SEGMENTED NEUTROPHIL / BASOPHIL / EOSINOPHIL / ERYTHROCYTE COUNT / HEMATOCRIT / HEMOGLOBIN / LEUKOCYTE COUNT / LYMPHOCYTE / MEAN CORPUSCULAR HEMOGLOBIN / MEAN CORPUSCULAR HEMOGLOBIN CONCENTRATION / MEAN CORPUSCULAR VOLUME / MONOCYTE / NEUTROPHIL / NUCLEATED RED BLOOD CELLS / PLATELET COUNT: tissue Blood; for ALANINE AMINOTRANSFERASE / ALBUMIN / ALKALINE PHOSPHATASE / ASPARTATE AMINOTRANSFERASE / BLOOD UREA NITROGEN / CARBON DIOXIDE / CHLORIDE / CHOLESTEROL / CREATINE PHOSPHOKINASE / CREATININE / GLUCOSE / LACTATE DEHYDROGENASE / LIPASE / PHOSPHORUS / POTASSIUM / SODIUM / TOTAL BILIRUBIN / TOTAL PROTEIN / URIC ACID: tissue Plasma
[1] = 0.005 mg/kg, 120 h, dose level Low, time 5 day
[2] = 0.05 mg/kg, 72 h, dose level High, time 3 day
[3] = 0.05 mg/kg, 120 h, dose level High, time 5 day

## CC(=O)O[C@H]1C[C@@H]2CC[C@@H]3[C@H](CC[C@@]4(C)[C@H]3C[C@H]([N+]3(C)CCCCC3)[C@@H]4OC(C)=O)[C@@]2(C)C[C@@H]1N1CCCCC1.[Br-] [VECURONIUM BROMIDE]
[1]
  ABSOLUTE BASOPHIL: 0 CELLS/uL
  ABSOLUTE EOSINOPHIL: 82.33 CELLS/uL
  ABSOLUTE LYMPHOCYTE: 12022.67 CELLS/uL
  ABSOLUTE MONOCYTE: 265.33 CELLS/uL
  ABSOLUTE SEGMENTED NEUTROPHIL: 796.33 CELLS/uL
  BASOPHIL: 0%
  EOSINOPHIL: 0.67%
  ERYTHROCYTE COUNT: 5.48 x10E6/uL
  HEMATOCRIT: 34.87%
  HEMOGLOBIN: 13.83 G/DL
  LEUKOCYTE COUNT: 13.17 x10E3/uL
  LYMPHOCYTE: 91%
  MEAN CORPUSCULAR HEMOGLOBIN: 25.23 pg
  MEAN CORPUSCULAR HEMOGLOBIN CONCENTRATION: 39.7 G/DL
  MEAN CORPUSCULAR VOLUME: 63.63 fL
  MONOCYTE: 2%
  NEUTROPHIL: 6.33%
  NUCLEATED RED BLOOD CELLS: 0 /100WBC
  PLATELET COUNT: 1117 x10E3/uL
  ALANINE AMINOTRANSFERASE: 68.67 u/L
  ALBUMIN: 4.17 G/DL
  ALKALINE PHOSPHATASE: 419 u/L
  ASPARTATE AMINOTRANSFERASE: 85 u/L
  BLOOD UREA NITROGEN: 19.33 mg/dL
  CARBON DIOXIDE: 30 mmol/L
  CHLORIDE: 101.33 MEQ/L
  CHOLESTEROL: 79 mg/dL
  CREATINE PHOSPHOKINASE: 251.67 u/L
  CREATININE: 0.25 mg/dL
  GLUCOSE: 172 mg/dL
  LACTATE DEHYDROGENASE: 116.67 u/L
  LIPASE: 10.33 u/L
  PHOSPHORUS: 12 mg/dL
  POTASSIUM: 5.82 MEQ/L
  SODIUM: 144.07 MEQ/L
  TOTAL BILIRUBIN: 0.2 mg/dL
  TOTAL PROTEIN: 5.9 G/DL
  URIC ACID: 1.27 mg/dL
[2]
  ABSOLUTE BASOPHIL: 0 CELLS/uL
  ABSOLUTE EOSINOPHIL: 0 CELLS/uL
  ABSOLUTE LYMPHOCYTE: 14697.33 CELLS/uL
  ABSOLUTE MONOCYTE: 387 CELLS/uL
  ABSOLUTE SEGMENTED NEUTROPHIL: 1049 CELLS/uL
  BASOPHIL: 0%
  EOSINOPHIL: 0%
  ERYTHROCYTE COUNT: 5.35 x10E6/uL
  HEMATOCRIT: 33.93%
  HEMOGLOBIN: 13.67 G/DL
  LEUKOCYTE COUNT: 16.13 x10E3/uL
  LYMPHOCYTE: 91.33%
  MEAN CORPUSCULAR HEMOGLOBIN: 25.53 pg
  MEAN CORPUSCULAR HEMOGLOBIN CONCENTRATION: 40.27 G/DL
  MEAN CORPUSCULAR VOLUME: 63.37 fL
  MONOCYTE: 2.33%
  NEUTROPHIL: 6.33%
  NUCLEATED RED BLOOD CELLS: 0 /100WBC
  PLATELET COUNT: 1089.33 x10E3/uL
  ALANINE AMINOTRANSFERASE: 70.67 u/L
  ALBUMIN: 4.17 G/DL
  ALKALINE PHOSPHATASE: 375.33 u/L
  ASPARTATE AMINOTRANSFERASE: 108 u/L
  BLOOD UREA NITROGEN: 15.67 mg/dL
  CARBON DIOXIDE: 28.33 mmol/L
  CHLORIDE: 103.33 MEQ/L
  CHOLESTEROL: 83 mg/dL
  CREATINE PHOSPHOKINASE: 435 u/L
  CREATININE: 0.25 mg/dL
  GLUCOSE: 145.33 mg/dL
  LACTATE DEHYDROGENASE: 607.67 u/L
  LIPASE: 12 u/L
  PHOSPHORUS: 12.1 mg/dL
  POTASSIUM: 6.48 MEQ/L
  SODIUM: 142.47 MEQ/L
  TOTAL BILIRUBIN: 0.17 mg/dL
  TOTAL PROTEIN: 5.87 G/DL
  URIC ACID: 1.4 mg/dL
[3]
  ABSOLUTE BASOPHIL: 0 CELLS/uL
  ABSOLUTE EOSINOPHIL: 0 CELLS/uL
  ABSOLUTE LYMPHOCYTE: 14510.33 CELLS/uL
  ABSOLUTE MONOCYTE: 51 CELLS/uL
  ABSOLUTE SEGMENTED NEUTROPHIL: 705.33 CELLS/uL
  BASOPHIL: 0%
  EOSINOPHIL: 0%
  ERYTHROCYTE COUNT: 5.55 x10E6/uL
  HEMATOCRIT: 33.37%
  HEMOGLOBIN: 13.47 G/DL
  LEUKOCYTE COUNT: 15.27 x10E3/uL
  LYMPHOCYTE: 95%
  MEAN CORPUSCULAR HEMOGLOBIN: 24.3 pg
  MEAN CORPUSCULAR HEMOGLOBIN CONCENTRATION: 40.33 G/DL
  MEAN CORPUSCULAR VOLUME: 60.17 fL
  MONOCYTE: 0.33%
  NEUTROPHIL: 4.67%
  NUCLEATED RED BLOOD CELLS: 0 /100WBC
  PLATELET COUNT: 1036.67 x10E3/uL
  ALANINE AMINOTRANSFERASE: 50.33 u/L
  ALBUMIN: 3.93 G/DL
  ALKALINE PHOSPHATASE: 347.67 u/L
  ASPARTATE AMINOTRANSFERASE: 100.33 u/L
  BLOOD UREA NITROGEN: 18 mg/dL
  CARBON DIOXIDE: 26 mmol/L
  CHLORIDE: 104 MEQ/L
  CHOLESTEROL: 57.67 mg/dL
  CREATINE PHOSPHOKINASE: 706.67 u/L
  CREATININE: 0.15 mg/dL
  GLUCOSE: 145.67 mg/dL
  LACTATE DEHYDROGENASE: 811.33 u/L
  LIPASE: 9.67 u/L
  PHOSPHORUS: 10.97 mg/dL
  POTASSIUM: 6.19 MEQ/L
  SODIUM: 144.13 MEQ/L
  TOTAL BILIRUBIN: 0.2 mg/dL
  TOTAL PROTEIN: 5.53 G/DL
  URIC ACID: 1.17 mg/dL
